Experimental data as given in US10513511B2, “Aqueous suspension formulation comprising 4-(4-(4-(((3R,5R)-5-((1H-1,2,4-triazol-1-yl)methyl)-5-(2,4-difluoro-phenyl)tetrahydrofuran-3-yl)methoxy)-3-methylphenyl) or a pharmaceutically acceptable salt thereof” (PULMOCIDE LIMITED, priority 2015, dated 2019).

Assays:
[1] = system: Aspergillus fumigatus (azole susceptible strain: NCPF2010); experiment: Aspergillus fumigatus infection of human alveoli bilayers (transwells), azole susceptible strain; format: cell-based; conditions: for MIC50 / MIC90: Aspergillus fumigatus, NCPF2010, 24 h; for MIC50: read-out: MIC50, invasion into the lower chamber in human alveoli bilayers; for MIC90: read-out: MIC90, invasion into the lower chamber in human alveoli bilayers; for GM Levels in the Lower Chamber, OD value / GM Levels in the Lower Chamber, % inhibition vs.control / DFB50: Days taken to reach a fungal burden of 50% of control: Compound (Ia) 0.1 μg/mL upper chamber, posaconazole 0.01 μg/mL lower chamber, combination of both
Description: (§1) In vitro models of human alveoli, consisting of a bilayer of human alveolar epithelial cells and endothelial cells, were prepared as previously described (Hope et al., 2007). This system allows administration of a test compound to the upper (“air” space) and/or lower (“systemic” space) compartments. This flexibility has been exploited to explore the effects of combination treatment by dosing Compound (I) to the upper chamber and posaconazole or other anti-fungal agents to the lower chamber. Primary human pulmonary artery endothelial cells (HPAEC) were harvested and diluted to 10^6 cells/mL in EGM-2 media (Lonza, Basel, Switzerland). Transwells were inverted and the cell suspension (100 μL/well) applied to the base of each transwell. The inverted transwells were incubated at RT within a flow hood for 2 hr after which they were turned upright. EGM-2 media was added to the lower (700 μL/well) and upper (100 μL/well) compartments and the transwells were incubated for 48 hr (37° C., 5% CO2). The EGM-2 media in the lower compartment was then replaced with fresh EGM-2 media. A549 cells were harvested and diluted to 5×10^5 cells/mL in 10% EBM, then added to the upper compartment (100 μL/well) of all transwells and the plates incubated for 72 hr (37° C., 5% CO2). Conidia of itraconazole sensitive Aspergillus fumigatus s (NCPF2010) and itraconazole resistant (TR34-L98H) strains were cultured separately in Sabouraud dextrose agar for 3 days. A stock conidia suspension of either strain was prepared from a Sabouraud dextrose agar culture by washing with PBS-tween (10 mL; PBS containing 0.05% Tween-20, 100 U/mL Penicillin and 100 U/mL Streptomycin). The conidia count was assessed using a Neubauer haemocytometer and adjusted to 10^6 conidia/mL with PBS. A working stock of conidia was prepared in EBM (10^5 conidia/mL) immediately prior to use.
(§2) Test and reference compounds (or neat DMSO as the vehicle) were added to the appropriate wells of 24-well plates (3 μL/well containing 600 μL of 2% FBS EBM) for lower compartment treatment and to 96-well plates (1 μL/well containing 200 μL of 2% FBS EBM) for the treatment of the upper compartment, to provide a final DMSO concentration of 0.5%. The media in the upper compartment was aspirated and that containing the appropriate test and reference compounds, or vehicle, were added (100 μL/well). Transwells were then transferred into the 24-well plate containing the test and reference compounds or DMSO vehicle. After incubation for 1 hr (35° C., 5% CO2) the conidia suspension (10 μL/well) was added to the upper compartment of each transwell. Plates were then incubated for 24 hr (35° C., 5% CO2). Supernatants from each compartment (5 μL/compartment) were collected and stored (−20° C.). Media was replaced daily after collection of the supernatants and all wells were treated with test and reference compounds or with DMSO, as described above, for 3 days. Samples continued to be collected until fungal growth was visible by eye in all transwells. The levels of GM in the supernatant in lower compartment were then measured by ELISA (BioRad, CA, USA) as an index of Aspergillus fumigatus invasion.

[2] = system: Aspergillus fumigatus (azole resistant strain: TR34/L98H); experiment: Aspergillus fumigatus infection of human alveoli bilayers (transwells), azole resistant strain; format: cell-based; conditions: for MIC50 / MIC90: Aspergillus fumigatus, 24 h; for MIC50: read-out: MIC50, invasion into the lower chamber in human alveoli bilayers; for MIC90: read-out: MIC90, invasion into the lower chamber in human alveoli bilayers
Description: as §1, §2

[3] = Day 1, TR34-L98H, Compound 0.3 μg/mL upper chamber, posaconazole 0.1 μg/mL lower chamber, combination of both
[4] = Day 2, TR34-L98H, Compound 0.3 μg/mL upper chamber, posaconazole 0.1 μg/mL lower chamber, combination of both
[5] = Day 3, TR34-L98H, Compound 0.3 μg/mL upper chamber, posaconazole 0.1 μg/mL lower chamber, combination of both

SMILES	MIC50 [1]	MIC90 [1]	GM Levels in the Lower Chamber, OD value ([1]; Day 0, NCPF2010)	GM Levels in the Lower Chamber, % inhibition vs.control ([1]; Day 1, NCPF2010)	GM Levels in the Lower Chamber, OD value ([1]; Day 1, NCPF2010)	GM Levels in the Lower Chamber, % inhibition vs.control ([1]; Day 2, NCPF2010)	GM Levels in the Lower Chamber, OD value ([1]; Day 2, NCPF2010)	GM Levels in the Lower Chamber, % inhibition vs.control ([1]; Day 3, NCPF2010)	GM Levels in the Lower Chamber, OD value ([1]; Day 3, NCPF2010)	GM Levels in the Lower Chamber, % inhibition vs.control ([1]; Day 4, NCPF2010)	GM Levels in the Lower Chamber, OD value ([1]; Day 4, NCPF2010)	GM Levels in the Lower Chamber, % inhibition vs.control ([1]; Day 5, NCPF2010)	GM Levels in the Lower Chamber, OD value ([1]; Day 5, NCPF2010)	GM Levels in the Lower Chamber, % inhibition vs.control ([1]; Day 6, NCPF2010)	GM Levels in the Lower Chamber, OD value ([1]; Day 6, NCPF2010)	GM Levels in the Lower Chamber, % inhibition vs.control ([1]; Day 7, NCPF2010)	GM Levels in the Lower Chamber, OD value ([1]; Day 7, NCPF2010)	DFB50: Days taken to reach a fungal burden of 50% of control ([1]; NCPF2010)	MIC50 [2]	MIC90 [2]	other results
Cc1cc(N2CCN(c3ccc(C(=O)N[C@H]4CCCC[C@@H]4O)cc3)CC2)ccc1OC[C@@H]1CO[C@@](Cn2cncn2)(c2ccc(F)cc2F)C1 [Compound (Ia), 4-(4-(4-(((3R,5R)-5-((1H-1,2,4-triazol-1-yl)methyl)-5-(2,4-difluorophenyl)tetrahydrofuran-3-yl)methoxy)-3-methylphenyl)piperazin-1-yl)-N-((1S,2S)-2-hydroxycyclohexyl) benzamide]	0.154 µM	0.185 µM	0 OD	66%	0.24 OD	1.5%	1.71 OD	8.6%	1.67 OD	−1.6%	1.68 OD	0.2%	1.63 OD	−1.8%	1.57 OD	7.1%	1.54 OD	1.04 days	0.261 µM	0.417 µM	maximum inhibition of GM levels in the bottom chamber ([1]; NCPF2010, administration to the apical chamber, 1 day post infection): exceeding 90%; maximum inhibition of GM levels in the bottom chamber ([2]; TR34/L98H, administration to the apical chamber, 1 day post infection): exceeding 90%
CC[C@@H]([C@H](C)O)n1ncn(-c2ccc(N3CCN(c4ccc(OC[C@@H]5CO[C@@](Cn6cncn6)(c6ccc(F)cc6F)C5)cc4)CC3)cc2)c1=O [Posaconazole, reference compound]	0.155 µM	0.212 µM	0 OD	89%	0.074 OD	1.5%	1.71 OD	7.1%	1.70 OD	−3.0%	1.70 OD	−3.6%	1.69 OD	−3.0%	1.59 OD	2.5%	1.62 OD	1.16 days	0.315 µM	0.793 µM	GM Levels in the Lower Chamber, OD value ([2]; Day 0, TR34-L98H, Compound 0.3 μg/mL upper chamber, posaconazole 0.1 μg/mL lower chamber, combination of both): 0 OD; GM Levels in the Lower Chamber, % inhibition vs. vehicle control [2, 3]: 98%; GM Levels in the Lower Chamber, OD value [2, 3]: 0.016 OD; GM Levels in the Lower Chamber, % inhibition vs. vehicle control [2, 4]: 35%; GM Levels in the Lower Chamber, OD value [2, 4]: 0.73 OD; GM Levels in the Lower Chamber, % inhibition vs. vehicle control [2, 5]: −10%; GM Levels in the Lower Chamber, OD value [2, 5]: 1.16 OD; DFB50: Days taken to reach a fungal burden of 50% of control ([2]; TR34-L98H, Compound 0.3 μg/mL upper chamber, posaconazole 0.1 μg/mL lower chamber, combination of both): 1.94 days
